In series [1] the test system is Arabidopsis petiole. Nature of the series: Extracellular ROS production, luminol chemiluminescence. It is filed as cell-based, Arabidopsis thaliana. As to conditions: 100 μM. As to the method: The only exception to this general trend was compound 5β. […]
ananatoside A (1) ananatoside B (2)
Figure S8. Extracellular ROS production following treatment of Arabidopsis petiole with […]
ananatoside A (1) or ananatoside B (2). Production of reactive oxygen species (ROS) was measured […]
in Arabidopsis petiole following treatment at 100 µM with ananatoside A (1) and ananatoside B […]
(2). Methanol (0.5%) was used as a control. ROS production was measured using the […]
chemiluminescence of luminol and photon counts were expressed as relative luminescence units […]
(RLUs). Data are mean ± SEM (n = 6). Experiments were realized three times with similar results.
(also on this page, place not known: S 8. ( 1) Luminescence (RLU) Luminescence (RLU)) […]
ranging between 200 µM and 1.56 µM. Triton X-100 was used as a positive hemolysis control.
The plate was then incubated at 37 °C with agitation at 150 rpm for 1 h and centrifuged at 1500 × g for 5 min. The supernatant was transferred in an empty plate and absorbance was measured at 540 nm using a Cytation3 microplate reader (Biotek). HC50 was calculated in comparison with the positive control. The experiment was performed in triplicate and repeated three times.
Plant Material and Growth Conditions. […]
Reactive Oxygen Species (ROS) Production. […] Luminescence (relative light units, RLU) was measured every 4

The subject of series [2] is tomato leaf disks. Described as above. The series is classed as cell-based, Solanum lycopersicum. The note with it: 100 μM, monitored over 720 min. From the text: Bacterial rhamnolipids, such as compound 3, trigger the plant immune system, which can ultimately lead to plant protection against diseases caused by fungal and bacterial pathogens.[23] As ananatoside A (1) and ananatoside B (2) share structural similarities with rhamnolipid 3 and because they have been isolated from P. ananatis cultures, an emerging plant pathogen causing important agricultural damage worldwide,[81] we wanted to investigate whether these bacterial glycolipids, along with our unprecedented series of synthetic rhamnolactones, could be perceived by the plant immune system. We relied on measuring the extracellular content of reactive oxygen species (ROS) produced by tomato plants (Solanum lycopersicum) following treatment with the synthetic compounds, as an early and important marker of plant immunity.[20,22,82] Tomato leaves were challenged with synthetic glycolipids 1–6 at concentrations of 100 μM and the production of ROS was monitored over a 720 min time frame (Fig. 5).
Fig. 5 Extracellular reactive oxygen species (ROS) production following treatment of tomato leaf disks with ananatoside A (1), ananatoside B (2), RhaC10C10 (3), and related macrodilactone-containing rhamnolipids (4–6). Production of ROS was measured in tomato leaf disks following treatment at 100 μM with synthetic glycolipids (1–6). MeOH (0.5%) was used as a control. ROS production was measured using the chemiluminescence of luminol and photon counts were expressed as relative luminescence units (RLUs). Data are mean ± SEM (n = 6). Experiments were independently realized three times with similar results. […]
Plant Material and Growth Conditions. Tomato plants (Solanum lycopersicum L var. Ailsa craig, Scotland) were grown on soil in growth chamber with white fluorescent light [200 μmol•(m−2 s−1)], under 16 h/8 h light/dark regime, 60% relative humidity , and a temperature of 24 /20 °C during four weeks prior treatment. Arabidopsis thaliana plants (ecotype Col -0) were grown on soil in growth chambers with white fluorescent light (150 μmol m−2 s−1), under 12 h/12 h light/dark regime, 60% relative humidity, and a temperature of 20/20 °C during six weeks prior treatment.
Reactive Oxygen Species (ROS) Production. ROS assays were performed on four-week old tomato plants or six-week old Arabidopsis plants. Briefly, tomato leaf disks of 6 mm diameter or Arabidopsis petiole sections of 5 mm long were cut and placed in a 96-well plate (Optiplate TM-96 white, PerkinElmer) containing 150 µL of distilled H2O and then incubated at rt for 24 h to reduce the wounding response.11 The elicitation solution containing 0.2 µg•mL−1 luminol (A4685-5 g, Sigma), […] (P6782, Sigma) and the tested glycolipids (1, 2, 3, 4, 5α, 5β, 6α or 6β) at 100 μM was prepared. Methanol (0.5%) was used as negative control. Prior elicitation, the incubating distilled H2O was carefully removed from each well, avoiding any tissue damage or desiccation. Then, the elicitation solution (150 µL) was quickly added to each well containing a leaf disk or a petiole. Luminescence (relative light units, RLU) was measured every 4

Series [3] is described as follows: Emulsifying activity against hydrocarbon contaminants. The series is classed as physicochemical. The note with it: cyclohexane and kerosene. Here is the method: Therefore, the emulsifying properties of microbial biosurfactants 1–3 were evaluated against light as well as heavy hydrocarbon contaminants such as cyclohexane and kerosene, respectively (see Fig. S7 ^†).

Series [4] in a line: Cytotoxicity, resazurin assay. It is filed as cell-based, human. As to conditions: human, max tested 200 μM. Here is the method: As the anticancer potential of microbial rhamnolipids has previously been reported,[16] we next sought to evaluate the in vitro cytotoxicity of our synthetic and natural glycolipids 1–6 against cancerous cell lines, i.e., human lung carcinoma (A549) and colorectal adenocarcinoma (DLD-1). The compounds were also tested against human normal skin fibroblasts (WS1) to estimate their selectivity towards cancer cells.
4. Experimental Procedures for Biological Evaluation and Surfactant Properties. […]
Cell Culture. Human lung carcinoma (A549), human colorectal adenocarcinoma (DLD-1), and human normal skin fibroblasts (WS1) cell lines were obtained from the American Type Culture Collection (ATCC). All cell lines were cultured in minimum essential medium containing Earle’s […]
salts and L-glutamine (Mediatech Cellgro, VA), to which were added 10% foetal bovine serum (Hyclone), vitamins (1×), penicillin (100 IU•mL-1), streptomycin (100 µg•mL−1), essential amino acids (1×), and sodium pyruvate (1×) (Mediatech Cellgro, VA). Cells were kept at 37 °C in a humidified environment containing 5% CO2.
Cytotoxicity Assay. Exponentially growing A549, DLD-1 or WS1 cells were plated in 96-well microplates (Costar, Corning Inc.) at a density of 5 × 10^3 cells per well in 100 µL of culture medium and were allowed to adhere for 16 h prior treatment. Increasing concentrations of each compound in biotech DMSO (Sigma-Aldrich) were then added (100 µL per well) and the cells were incubated for 48 h. The final concentration of DMSO in the culture medium was maintained at 0.5% (v/v) to avoid solvent toxicity. Cytotoxicity was assessed using resazurin9 on an automated 96-well Fluoroskan Ascent F1TM plate reader (Labsystems) using excitation and emission wavelengths of 530 and 590 nm, respectively. Fluorescence was proportional to the cellular metabolic activity in each well. Survival percentage was defined as the fluorescence in experimental wells as compared to that in control wells after subtraction of blank values. Each experiment was carried out three times in triplicate. IC50 results were expressed as means ± standard deviation. […]
Background: Alamar Blue is a resazurin reagent that responds to reducing activity.

Where [5] appears, read: DLD-1 colorectal adenocarcinoma cells.

The source of these data is publication PMC8171317, “Total synthesis, isolation, surfactant properties, and biological evaluation of ananatosides and related macrodilactone-containing rhamnolipids” (Chemical Science, 2021).

A value given as a limit tells only on which side of the number the result lay.

Regarding `CCCCCCC[C@@H]1CC(=O)OC[C@H]2O[C@@H](O[C@H](CCCCCCC)CC(=O)O1)[C@H](O)[C@@H](O)[C@@H]2O` [Compound 1, ananatoside A], in series [1], the “Extracellular ROS production (perception by plants)” value is recorded as “perceived by plants”. Besides, the “Extracellular ROS production” value in series [2] is given as “not”. The Emulsifying activity entry in series [3] is “unable to form any emulsion”. Also, the IC50 (commonly the concentration that inhibits the measured activity by half) at 48 h in series [4] (A549 lung carcinoma cells) amounted to 50 ± 7 µM; in series [4] (setting [5]), 58 ± 2 µM; in series [4] (WS1 normal skin fibroblasts) it was 52 ± 4 µM.

As to `CCCCCCC[C@H](CC(=O)O)OC(=O)C[C@@H](CCCCCCC)O[C@@H]1O[C@H](CO)[C@@H](O)[C@H](O)[C@H]1O` [Compound 2, ananatoside B], the “Extracellular ROS production (perception by plants)” value in series [1] was “perceived by plants”. The “Extracellular ROS production” value in series [2] is listed as “less strong in amplitude, a similar pattern of ROS production”. Also, the Emulsifying activity result in series [3] is “equally able to generate emulsions with cyclohexane and kerosene”. Besides, the IC50 at 48 h in series [4] (A549 lung carcinoma cells), in series [4] (setting [5]) and in series [4] (WS1 normal skin fibroblasts) was above 200 µM each time.
